Experimental data published in publication PMC11947619, “Molecular mechanism of Mad2 conformational conversion promoted by the Mad2‐interaction motif of Cdc20” (Protein Science : A Publication of the Protein Society, 2025).

What was measured:
O‐Mad2^R133A = biological target: T1, O‐Mad2^R133A (Homo sapiens, UniProt Q13257, R133A); details: 100 μM O-Mad2^R133A, two-fold molar excess peptide, 25°C, 20 mM HEPES pH 7.0, 100 mM NaCl, 1 mM TCEP, 5% D2O; Trp75/Trp167 indole NH reporters; 12 min per spectrum; ref Fischer et al., [2022]; cited from earlier work
T1 construct: unable to collect equivalent data for full‐length O‐Mad2^R133A; His6-DoubleStrep-TEV (N); made in house
T1 sequence (Q13257 whole entry R133A): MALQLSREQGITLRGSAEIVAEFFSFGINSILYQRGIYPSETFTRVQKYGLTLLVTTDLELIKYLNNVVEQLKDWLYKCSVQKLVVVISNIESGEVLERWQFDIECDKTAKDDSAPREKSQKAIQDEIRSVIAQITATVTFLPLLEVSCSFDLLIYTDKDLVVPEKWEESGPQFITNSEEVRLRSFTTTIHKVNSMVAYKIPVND
Experimental: In contrast, conversion took ~24 h in the absence of Cdc20^MIM‐111‐138 peptide (Fischer et al., [2022]) (Figures 2c and ...

O‐Mad2^LL = biological target: T2, O‐Mad2^LL (Homo sapiens, UniProt Q13257, A115G/DEL109-114/P116S/R117G); assay: Time-resolved NMR: conversion / binding with O-Mad2^LL (loop-less); format: biochemical; details: two-fold molar excess peptide, 25°C
T2 construct: His6-DoubleStrep-TEV (N); made in house
T2 sequence (Q13257 with tags, fused parts or gaps DEL109-114/A115G/P116S/R117G): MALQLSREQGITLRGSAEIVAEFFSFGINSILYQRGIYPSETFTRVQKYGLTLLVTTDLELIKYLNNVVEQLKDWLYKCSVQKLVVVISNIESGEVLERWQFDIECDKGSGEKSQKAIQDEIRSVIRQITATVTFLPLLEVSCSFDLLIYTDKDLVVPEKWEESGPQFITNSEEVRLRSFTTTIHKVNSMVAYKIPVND
Experimental: FIGURE 5 The dynamic β5‐αC loop and C‐terminal residues in O‐Mad2 modulate Mad2 conversion. The O‐ to C‐Mad2 conversion is slowed when the highly dynamic β5‐αC loop is truncated (O‐Mad2^LL) and eliminated in the absence of the C‐terminal ten residues (O‐Mad2^∆C10). Using the side chain resonances of Trp75 and Trp167 as reporters, Mad2 conversion was traced in a 24 h time course at 25°C. Cdc20^MIM‐111‐138 peptides were added at two‐fold molar excess to Mad2 (100 μM). Severe line broadening was observed during the conversion of O‐Mad2^LL, most likely due to dimerization of O‐Mad2^LL with the newly converted C‐Mad2^LL. NMR data for O‐Mad2^R133A with Cdc20^MIM‐111‐138 shown for comparison are from Fischer et al. ([2022]).
The cloning of human wild‐type Mad2 and the mutant Mad2^R133A by the USER® method (NEB) into the pRSFDuet‐1 vector (71341‐3, Sigma‐Aldrich) with a His6‐DoubleStrep‐TEV tag at its N‐terminus was described previously (Fischer et al., [2022]). For this study, Mad2 mutants were generated as follows. The Mad2^LL expression construct was generated from the wild‐type Mad2 expression vector (Fischer et al., [2022]) by replacing residues 109–117 (TAKDDSAPR) with GSG. Mad2^ΔC10 and Mad2^Δβ7/β8 were modified from wild‐type Mad2 expression construct by deleting residues 196–205 and 166–205, respectively. Mad2^LL/R133A was modified by substituting Ala for Arg133 from the Mad2^LL expression construct. Mad2^LL/ΔC10 was modified from Mad2^LL by deleting residues 196–205. Mad2^L13A/R133A was generated from the Mad2^R133A mutant. Site‐directed mutagenesis of Mad2 was completed using the QuikChangeTM Lightning Site‐Directed Mutagenesis Kit (Agilent) developed by Stratagene Inc. (La Jolla, CA).
All peptides were synthesized by Cambridge Research Biochemicals, UK. Peptides were dialyzed into 20 mM HEPES, pH 7.0, 100 mM NaCl, and 1 mM TCEP for NMR experiments. […]
Mad2LL (grey), Mad2∆C10 (green) and Mad2LL/∆C10 (purple). […] 15N{1H}‐ heteronuclear NOE were measured at 298 K. Regions that are highly dynamic are highlighted in yellow. e. […]

- binding to Mad2^LL, early spectra (O‐Mad2^LL; HSQC, spectra collected within 15 min): no binding
- slowing of conversion relative to O-Mad2^R133A with Cdc20^MIM-111-138 (O‐Mad2^LL; O-Mad2^LL 100 μM): 8 times
- time for conversion of O-Mad2^LL to C-Mad2^LL:Cdc20^MIM (O‐Mad2^LL; O-Mad2^LL 100 μM, Trp75/Trp167 reporters): ~ 250 min
Sequence: EHQKAWALNLNGFDVEEAKILRLSGKPQ [Cdc20^MIM‐111‐138, Cdc20^MIM peptide spanning Cdc20 residues 111–138]
- time to complete Mad2 conversion (O‐Mad2^R133A): less than 30 min
